{
  "source": "patent US6642216B2",
  "about": "“Isoprenoid pathway inhibitors for stimulating bone growth” (ZymoGenetics Corporation, priority 1996, dated 2003)",
  "key": {"BMP-2 promoter": {"system": "BMP-2 promoter", "test": "ABA assay: BMP-2 promoter-luciferase reporter in 2T3-BMP-2-LUC osteoblast cells", "type": "cell-based, mouse", "procedure": "These transformed cells are then evaluated for the production of the reporter gene product; compounds that activate the BMP promoter will drive production of the reporter protein, which can be readily assayed.\nThe cells were cultured using α-MEM, 10% FCS with 1% penicillin/streptomycin and 1% glutamine (“plating medium”), and were split 1:5 once per week. For the assay, the cells were resuspended in a plating medium containing 4% FCS, plated in microtiter plates at a concentration of 5×10^3 cells (in 50 μl)/well, and incubated for 24 hours at 37° C. in 5% CO2. To initiate the assay, 50 μl of the test compound or the control in DMSO was added at 2× concentration to each well, so that the final volume was 100 μl. The final serum concentration was 2% FCS, and the final DMSO concentration was 1%.\nThe treated cells were incubated for 24 hours at 37° C. and 5% CO2. The medium was then removed, and the cells were rinsed three times with PBS. After removal of excess PBS, 25 μl of 1× cell culture lysing reagent (Promega #E153A) was added to each well and incubated for at least ten minutes. Optionally, the plates/samples could be frozen at this point. To each well was added 50 μl of luciferase substrate (Promega #E152A; 10 ml Promega luciferase assay buffer per 7 mg Promega luciferase assay substrate). Luminescence was measured on an automated 96-well luminometer, and was expressed as either picograms of luciferase activity per well or as picograms of luciferase activity per microgram of protein.\nAlternatively, the reactivity of a compound to be tested can be compared directly to a negative control containing no compound."}, "[1]": {"system": "ICR Swiss white mice calvaria", "test": "In vivo murine calvarial bone growth assay", "design": "species or system mouse", "procedure": "Male ICR Swiss white mice, aged 4-6 weeks and weighing 13-26 gm, are employed, using 4-5 mice per group. The calvarial bone growth assay is performed as described in PCT application WO 95/24211, incorporated by reference. Briefly, the test compound or appropriate control vehicle is injected into the subcutaneous tissue over the right calvaria of normal mice. Typically, the control vehicle is the vehicle in which the compound was solubilized, and is PBS containing 5% DMSO or is PBS containing Tween (2 μl/10 ml). The animals are sacrificed on day 14 and bone growth measured by histomorphometry. Bone samples for quantitation are cleaned from adjacent tissues and fixed in 10% buffered formalin for 24-48 hours, decalcified in 14% EDTA for 1-3 weeks, processed through graded alcohols; and embedded in paraffin wax. Three to five μm sections of the calvaria are prepared, and representative sections are selected for histomorphometric assessment of the effects on bone formation and bone resorption. Sections are measured by using a camera lucida attachment to trace directly the microscopic image onto a digitizing plate. Bone changes are measured on sections cut 200 μm apart, over 4 adjacent 1×1 mm fields on both the injected and noninjected sides of the calvaria. New bone is identified by its characteristic woven structure, and osteoclasts and osteoblasts are identified by their distinctive morphology. Histomorphometry software (OsteoMeasure, Osteometrix, Inc., Atlanta) is used to process digitizer input to determine cell counts and measure areas or perimeters.\nThe results are reported as a measurement of total bone area (and % increase in area over vehicle control), as shown below."}, "neonatal mouse calvaria": {"system": "neonatal mouse calvaria", "test": "Neonatal mouse calvaria assay (in vitro bone formation)", "type": "cell-based", "design": "Osteoblast Number, % increase over vehicle control / New Bone Area, % increase over vehicle control: concentration or dose not given beside the values", "procedure": "Briefly, four days after birth, the front and parietal bones of ICR Swiss white mouse pups are removed by microdissection and split along the sagittal suture.\nThree μm sections of the calvaria are prepared. Representative sections are selected for histomorphometric assessment of bone formation or bone resorption. Bone changes are measured on sections cut 200 μm apart. Osteoblasts and osteoclasts are identified by their distinctive morphology.\nSelected compounds and appropriate controls were assayed in vitro (ex vivo) for bone formation activity (described above in “Neonatal Mouse Calvaria Assay (in vitro)”). Histomorphometrical assessments of ex vivo calvaria were carried out using an OsteoMetrics bone morphometry measurement program, according to the manufacturer's instructions. Measurements were determined using either a 10- or 20-fold objective with a standard point counting eyepiece graticule.\nNew bone formation was determined (using a 10× objective) by measuring the new bone area formed in one field in 3 representative sections of each bone (4 bones per group). Each measurement was carried out ½ field distance from the end of the suture. Both total bone and old bone area were measured. Data were expressed as new bone area in mm^2.\nOsteoblast numbers were determined by point counting. The number of osteoblast cells lining the bone surface on both sides of the bone were counted in one field using a 20× objective. Data were expressed as osteoblast numbers/mm of bone surface.\nThe results were calculated as new bone area in mm^2×10^−3, as above."}},
  "data": [
    {"smiles": "CCC(C)(C)C(=O)O[C@H]1C[C@@H](C)C=C2C=C[C@H](C)[C@H](CC[C@@H]3C[C@@H](O)CC(=O)O3)[C@H]21", "note": "[Simvastatin, simvastatin]", "values": [
      {"measurement": "% 59-0008 Response", "setting": "BMP-2 promoter; Experiment 1, 0.195312 μg/ml", "value": 29.030, "unit": "%"},
      {"measurement": "% 59-0008 Response", "setting": "BMP-2 promoter; Experiment 1, 0.390625 μg/ml", "value": 38.210, "unit": "%"},
      {"measurement": "% 59-0008 Response", "setting": "BMP-2 promoter; Experiment 1, 0.78125 μg/ml", "value": 69.600, "unit": "%"},
      {"measurement": "% 59-0008 Response", "setting": "BMP-2 promoter; Experiment 1, 1.5625 μg/ml", "value": 99.170, "unit": "%"},
      {"measurement": "% 59-0008 Response", "setting": "BMP-2 promoter; Experiment 1, 3.125 μg/ml", "value": 135.610, "unit": "%"},
      {"measurement": "% 59-0008 Response", "setting": "BMP-2 promoter; Experiment 1, 6.25 μg/ml", "value": 141.970, "unit": "%"},
      {"measurement": "% 59-0008 Response", "setting": "BMP-2 promoter; Experiment 1, 12.5 μg/ml", "value": 131.300, "unit": "%"},
      {"measurement": "% 59-0008 Response", "setting": "BMP-2 promoter; Experiment 1, 25 μg/ml", "value": 148.310, "unit": "%"},
      {"measurement": "% 59-0008 Response", "setting": "BMP-2 promoter; Experiment 1, 50 μg/ml", "value": "−22.950", "unit": "%"},
      {"measurement": "% 59-0008 Response", "setting": "BMP-2 promoter; Experiment 1, 100 μg/ml", "value": "−23.010", "unit": "%"},
      {"measurement": "% 59-0008 Response", "setting": "BMP-2 promoter; Experiment 1, 200 μg/ml", "value": "−22.960", "unit": "%"},
      {"measurement": "% 59-0008 Response", "setting": "BMP-2 promoter; Experiment 2, 0.465820 μM, 0.195312 μg/ml", "value": 0.310, "unit": "%"},
      {"measurement": "% 59-0008 Response", "setting": "BMP-2 promoter; Experiment 2, 0.931640 μM, 0.390625 μg/ml", "value": 2.600, "unit": "%"},
      {"measurement": "% 59-0008 Response", "setting": "BMP-2 promoter; Experiment 2, 1.863281 μM, 0.78125 μg/ml", "value": 6.820, "unit": "%"},
      {"measurement": "% 59-0008 Response", "setting": "BMP-2 promoter; Experiment 2, 3.726562 μM, 1.5625 μg/ml", "value": 19.670, "unit": "%"},
      {"measurement": "% 59-0008 Response", "setting": "BMP-2 promoter; Experiment 2, 7.453125 μM, 3.125 μg/ml", "value": 51.660, "unit": "%"},
      {"measurement": "% 59-0008 Response", "setting": "BMP-2 promoter; Experiment 2, 14.90625 μM, 6.25 μg/ml", "value": 104.640, "unit": "%"},
      {"measurement": "% 59-0008 Response", "setting": "BMP-2 promoter; Experiment 2, 29.8125 μM, 12.5 μg/ml", "value": 152.290, "unit": "%"},
      {"measurement": "% 59-0008 Response", "setting": "BMP-2 promoter; Experiment 2, 59.625 μM, 25 μg/ml", "value": 180.640, "unit": "%"},
      {"measurement": "% 59-0008 Response", "setting": "BMP-2 promoter; Experiment 2, 119.25 μM, 50 μg/ml", "value": 189.430, "unit": "%"},
      {"measurement": "% 59-0008 Response", "setting": "BMP-2 promoter; Experiment 2, 238.5 μM, 100 μg/ml", "value": 304.100, "unit": "%"},
      {"measurement": "% 59-0008 Response", "setting": "BMP-2 promoter; Experiment 2, 477 μM, 200 μg/ml", "value": 222.180, "unit": "%"},
      {"measurement": "% increase in total bone area over vehicle control", "setting": "[1]; 1 mg/kg/day", "value": 2, "unit": "%"},
      {"measurement": "Total Bone Area", "setting": "[1]; 1 mg/kg/day", "value": 172, "unit": "μm^2"},
      {"measurement": "% increase in total bone area over vehicle control", "setting": "[1]; 5 mg/kg/day", "value": 20, "unit": "%"},
      {"measurement": "Total Bone Area", "setting": "[1]; 5 mg/kg/day", "value": 202, "unit": "μm^2"},
      {"measurement": "% increase in total bone area over vehicle control", "setting": "[1]; 10 mg/kg/day", "value": 46, "unit": "%"},
      {"measurement": "Total Bone Area", "setting": "[1]; 10 mg/kg/day", "value": 245, "unit": "μm^2"},
      {"measurement": "increase in the number of osteoblasts", "setting": "[1]; mouse, in vivo", "value": 1.5, "unit": "fold"},
      {"measurement": "New Bone Area", "setting": "neonatal mouse calvaria; Experiment 1, 3 days", "value": 8.5, "unit": "mm^2 × 10^−3"},
      {"measurement": "New Bone Area, % increase over vehicle control", "setting": "neonatal mouse calvaria; Experiment 1, 3 days", "value": 77, "unit": "%"},
      {"measurement": "Osteoblast Number", "setting": "neonatal mouse calvaria; Experiment 1, 3 days", "value": 156, "unit": "Obs/field"},
      {"measurement": "Osteoblast Number, % increase over vehicle control", "setting": "neonatal mouse calvaria; Experiment 1, 3 days", "value": 63, "unit": "%"},
      {"measurement": "New Bone Area", "setting": "neonatal mouse calvaria; Experiment 1, 7 days", "value": 17.4, "unit": "mm^2 × 10^−3"},
      {"measurement": "New Bone Area, % increase over vehicle control", "setting": "neonatal mouse calvaria; Experiment 1, 7 days", "value": 123, "unit": "%"},
      {"measurement": "Osteoblast Number", "setting": "neonatal mouse calvaria; Experiment 1, 7 days", "value": 154, "unit": "Obs/field"},
      {"measurement": "Osteoblast Number, % increase over vehicle control", "setting": "neonatal mouse calvaria; Experiment 1, 7 days", "value": 68, "unit": "%"},
      {"measurement": "New Bone Area", "setting": "neonatal mouse calvaria; Experiment 2, 3 days", "value": 15.4, "unit": "mm^2 × 10^−3"},
      {"measurement": "New Bone Area, % increase over vehicle control", "setting": "neonatal mouse calvaria; Experiment 2, 3 days", "value": 285, "unit": "%"},
      {"measurement": "Osteoblast Number", "setting": "neonatal mouse calvaria; Experiment 2, 3 days", "value": 154, "unit": "Obs/field"},
      {"measurement": "Osteoblast Number, % increase over vehicle control", "setting": "neonatal mouse calvaria; Experiment 2, 3 days", "value": 70, "unit": "%"},
      {"measurement": "New Bone Area", "setting": "neonatal mouse calvaria; combination study, IBN (1 μM), 59-0328 0.1 μM alone", "value": "5.1 ± 0.49", "unit": "mm^2 × 10^−3"},
      {"measurement": "New Bone Area", "setting": "neonatal mouse calvaria; combination study, IBN (1 μM), 59-0328 0.2 μM alone", "value": "5.23 ± 0.89", "unit": "mm^2 × 10^−3"},
      {"measurement": "New Bone Area", "setting": "neonatal mouse calvaria; combination study, IBN (10 μM), 59-0328 0.1 μM alone", "value": "4.25 ± 0.59", "unit": "mm^2 × 10^−3"},
      {"measurement": "New Bone Area", "setting": "neonatal mouse calvaria; combination study, IBN (10 μM), 59-0328 0.2 μM alone", "value": "6.83 ± 1.54", "unit": "mm^2 × 10^−3"}
    ]}
  ]
}
